From US20180057505A1, “BICYCLIC HETEROARYL COMPOUNDS USEFUL AS INHIBITORS OF THE PAR-2 SIGNALING PATHWAY” (VERTEX PHARMACEUTICALS INCORPORATED, priority 2015, published 2018)

Key:
[1] = In vivo rat pharmacokinetics experiments; settings: for Clp: intravenous bolus 0.5 to 1 mg/kg; for Clp / T ½: non-compartmental analysis; for F: oral gavage, dose 1 to 600 mg/kg
Protocol: Example 99: Protocol for Testing PAR2 Compounds In Vivo Rat Pharmacokinetics Experiments
Compounds delivered by intravenous route were formulated using a solution formulation consisting of 5% N-methylpyrrolidone 10% Vitamin E-TPGS and 85% water (v/v/) or a solution formulation consisting of 25% N-methylpyrrolidone 35% polyethylene glycol 400 and 40% water (v/v/). Intravenous formulations were administered by a bolus injection (over approximately 10 seconds) using a hypodermic needle attaches to a syringe (tail vein). The dose volume was varied from 1 to 2 mL/kg and the dose was varied from 0.5 to 1 mg/kg. Compounds delivered orally were formulated as a solution formulation consisting of 5% N-methylpyrrolidone 10% Vitamin E-TPGS and 85% water (v/v/) or as fine suspension using a cellulose derivative suspending agent with or without the addition of a wetting agent/surfactant. Milling of large particles was performed as needed to reduce particle size using focused electroacoustic milling, homogenization or low energy media milling. A spray-dried solid dispersion was prepared for key compounds using 1:1 combination with cellulose derivatives. Test compounds were administered orally by gavage using a gavage plastic needle attached to a syringe. The dose volume was varied from 5 to 10 mL/kg and the dose was varied from 1 to 600 mg/kg.
Rats were bled by venipuncture (jugular vein) and the samples were collected into tubes containing K3EDTA. The tubes were placed on wet ice until processed. The samples were centrifuged for approximately 10 minutes (at approximately 4° C.) within approximately 30 minutes of collection to prepare plasma or diluted in citrate buffer (1:3) and stored frozen (approximately −30° C.). Thawed plasma or whole blood samples were extracted by protein precipitation using an organic solvent followed by centrifugation. The supernatants were separated by high-performance liquid chromatography coupled to mass spectrometry detection. A calibration curve was prepared using reference standard compounds spiked into either blank plasma or whole blood matrices and extracted similarly to unknown samples. Pharmacokinetic parameters were calculated using non-compartmental analysis.

[2] = tested on: carrageenan induced paw edema; test: Rat carrageenan-induced paw edema model; format: in vivo; settings: given 0.5-3 hour before carrageenan
Protocol: Example 100: In Vivo Pharmacological Evaluation of PAR2 Pathway Inhibitors Subjects and Housing and Rat Carrageenan-Induced Paw Edema Model Male Sprague Dawley rats were housed in groups in a temperature controlled room and were acclimatized in the animal facility for at least three days prior to use. Experiments were performed during the light phase of the cycle. Animals have food and water ad libitum. Peripheral inflammation was induced by intra-plantar administration of 100 ul of a 1% w/volume (in saline) carrageenan solution under isoflurane anesthesia. The degree of swelling was assessed using the plethysmometer at 2-3-4-5-6 h after carrageenan injection. Test compound or vehicle (0.5% MC/0.1% SDS) was systemically administered at the indicated doses in a volume of 5 mL/kg either 0.5-3 hour before carrageenan challenge (Table 4).

[3] = tested on: UTP-stimulated Ca2+ response in HT-29 cells; test: Ca FLIPR TETRA assay, ANTAGONIST mode, activator 0.6 μM UTP; format: cell-based; settings: Homo sapiens; HT-29 cells, activator 0.6 μM UTP
Method in brief: (§1)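 Antagonist-mode FLIPR Tetra Ca2+ read: dye-loaded HT-29 cells preincubated 30 min at r.t. with compound (first read checks agonism alone), then challenged with final 3.1 U/mL trypsin, 8 μM SLIGKV, 1 U/mL thrombin or 0.6 μM UTP. Cells plated overnight in 1% FBS McCoy's; Calcium 5 loading 45 min 37 °C plus 15 min r.t.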

PAR2 (HT-29 cells) [4] = molecular target: T1, PAR2 (HT-29 cells) (Homo sapiens, UniProt P55085); test: Ca FLIPR TETRA assay, ANTAGONIST mode, activator 8 μM SLIGKV; format: cell-based; settings: HT-29 cells, activator 8 μM SLIGKV
T1 construct: host or cells: HT-29
T1 sequence (P55085 26-397): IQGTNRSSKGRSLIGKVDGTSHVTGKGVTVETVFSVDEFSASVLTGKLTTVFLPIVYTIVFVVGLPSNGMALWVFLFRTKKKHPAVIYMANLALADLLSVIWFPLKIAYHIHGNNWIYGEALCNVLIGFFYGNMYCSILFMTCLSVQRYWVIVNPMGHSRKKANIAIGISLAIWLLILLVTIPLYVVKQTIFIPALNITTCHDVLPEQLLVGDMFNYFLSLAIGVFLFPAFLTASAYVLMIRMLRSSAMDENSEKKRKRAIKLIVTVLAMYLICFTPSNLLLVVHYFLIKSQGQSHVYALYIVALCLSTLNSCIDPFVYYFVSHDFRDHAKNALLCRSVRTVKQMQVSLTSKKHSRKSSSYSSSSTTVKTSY
Method in brief: as §1

PAR2 (HT-29 cells) [5] = molecular target: T1, PAR2 (HT-29 cells); test: Ca FLIPR TETRA assay, ANTAGONIST mode, activator 3.1 U/mL trypsin; format: cell-based; settings: HT-29 cells, activator 3.1 U/mL trypsin
Method in brief: as §1

[6] = tested on: Thrombin-stimulated Ca2+ response in HT-29 cells; test: Ca FLIPR TETRA assay, ANTAGONIST mode, activator 1 U/mL Thrombin; format: cell-based; settings: Homo sapiens; HT-29 cells, activator 1 U/mL Thrombin
Method in brief: as §1

[7] = Method A: maximal concentration of antagonist 0.1, 1 or 2 μM
[8] = maximal antagonist concentration per Method (A: 0.1, 1 or 2 μM; B: 50 μM)

Row | IC50 [3] | IC50 (PAR2 (HT-29 cells) [4]; [7]) | IC50 (PAR2 (HT-29 cells) [5]; [7]) | IC50 [6] | IC50 (PAR2 (HT-29 cells) [4]; [8]) | IC50 (PAR2 (HT-29 cells) [5]; [8]) | SMILES | other results
1 |  |  |  |  |  |  | CC(C)(C)c1cc(-c2ccc(Cl)c(F)c2)nc2cc(C(=O)N3CCN(c4ccc(C(=O)O)cn4)CC3(C)C)oc12 [Compound I-287] | Clp [1]: 5.2 mL/min/kg; T ½ [1]: 3.7 h; F [1]: 58%; % inhibition ([2]; dose 200 mg/kg): 30%
2 |  |  |  |  |  |  | CC(C)(C)c1cc(-c2ccc(Cl)c(F)c2)nc2cc(C(=O)N3CCN(C(=O)CC4(C(=O)O)CCCC4)CC3(C)C)oc12 [Compound I-324] | Clp [1]: 21.3 mL/min/kg; T ½ [1]: 0.47 h; F [1]: 19%; % inhibition ([2]; dose 20 mg/kg): 71%
3 | 660 nM | 0.9 nM | 1.9 nM | > 1010 nM |  |  | CC1(C)CCC(c2cc(C(C)(C)C)c3oc(C(=O)N4CCN(c5cccc(C(=O)O)n5)CC4(C)C)cc3n2)CC1 [Example I-449] | % inhibition ([2]; dose 40 mg/kg): 49%; % inhibition ([2]; dose 100 mg/kg): 73%
4 |  |  |  |  |  |  | Cc1nc(N2CCN(C(=O)c3cc4nc(-c5ccc(Cl)c(F)c5)cc(C(C)(C)C)c4o3)C(C)(C)C2)ccc1C(=O)O [Compound I-411] | Clp [1]: 6.5 mL/min/kg; T ½ [1]: 2.0 h; F [1]: 70%; % inhibition ([2]; dose 8 mg/kg): 36%
5 | > 2000 nM | 0.2 nM | 0.2 nM | > 2000 nM |  |  | CC1(C)CCC(c2cc(C(C)(C)C)c3oc(C(=O)N4CCN(C(=O)[C@H]5CC[C@@](C)(C(=O)O)CC5)CC4(C)C)cc3n2)CC1 [Example I-316] | % inhibition ([2]; dose 15 mg/kg): 50%; % inhibition ([2]; dose 40 mg/kg): 66%; % inhibition ([2]; dose 100 mg/kg): 81%; % inhibition ([2]; dose 250 mg/kg): 79%
6 | > 2000 nM | 8.2 nM | 10 nM | > 2000 nM |  |  | CN1CCN(C(=O)c2cc3nc(C4CCC(C)(C)CC4)cc(C(C)(C)C)c3o2)C(C)(C)C1=O [Example I-317] | 
7 | 5800 nM |  |  | 8700 nM | 8.3 nM | 8.6 nM | CC(C)c1cc(-c2ccc(F)cc2)nc2cc(C(=O)N3CCN(C(=O)C(O)C(C)C)CC3(C)C)oc12 (stereo not shown) [Example I-12] | 
8 | > 2000 nM | 0.3 nM | 0.4 nM | > 2000 nM |  |  | Cc1cnc(N2CCN(C(=O)c3cc4nc(-c5ccc(Cl)c(F)c5)cc(C(C)(C)C)c4o3)C(C)(C)C2)nc1C(=O)O [Example I-520] | 
9 | > 2000 nM |  |  | > 2000 nM | 3.5 nM | 9.5 nM | CC(C)(C)c1cc(-c2ccc(Cl)c(F)c2)nc2cc(C(=O)N3CCN(c4cccc(C(=O)O[C@@H]5OC(C(=O)O)[C@@H](O)C(O)[C@@H]5O)n4)CC3(C)C)oc12 (stereo partly drawn) [Example I-253, (3S,5S,6S)-6-[6-[4-[7-tert-butyl-5-(4-chloro-3-fluoro-phenyl)furo[3,2-b]pyridine-2-carbonyl]-3,3-dimethyl-piperazin-1-yl]pyridine-2-carbonyl]oxy-3,4,5-trihydroxy-tetrahydropyran-2-carboxylic acid] | 
10 | > 2000 nM | 19 nM | 18 nM | > 2000 nM |  |  | CC(C)(C)c1cc(-c2ccc(Cl)c(F)c2)nc2cc(C(=O)N3CCN(C(=O)[C@@H]4CC[C@H](C(=O)O)C4)CC3(C)C)oc12 [Example I-512] | 
11 | > 1000 nM |  |  | > 1000 nM | 6.4 nM | 7.4 nM | CC(C)c1cc(-c2ccc(F)cc2)nc2cc(C(=O)N3CCN(C(=O)[C@H]4C[C@@](C)(O)C4)CC3(C)C)oc12 [Example I-136] | 
12 | > 2000 nM | 91 nM | 28.5 nM | > 2000 nM |  |  | CC(C)(C)c1cc(-c2ccc(Cl)c(F)c2)nc2cc(C(=O)N3CCC(=O)NCC3(C)C)oc12 [Example I-335] | 
13 | > 2000 nM |  |  | > 2000 nM | 11 nM | 16 nM | CC[C@H](C)c1cc(-c2ccc(F)cc2)nc2cc(C(=O)N3CCNC(=O)C3(C)C)oc12 [Example I-246] | 
14 | > 1000 nM |  |  | > 1000 nM | 2.8 nM | 5.5 nM | Cc1nnc(C(=O)N2CCN(C(=O)c3cc4nc(-c5ccc(Cl)cc5)cc(C(C)(C)C)c4o3)C(C)(C)C2)o1 [Example I-179] | 
15 | > 2000 nM | 6.8 nM | 5 nM | > 2000 nM |  |  | Cn1cnnc1N1CCN(C(=O)c2cc3nc(C4CCC(C)(C)CC4)cc(C(C)(C)C)c3o2)C(C)(C)C1 [Example I-530] | 
16 | > 2000 nM | 0.3 nM | 0.3 nM | > 2000 nM |  |  | COc1nc(N2CCN(C(=O)c3cc4nc(-c5ccc(Cl)c(F)c5)cc(C(C)(C)C)c4o3)C(C)(C)C2)ccc1C(=O)O [Example I-498] | 
17 | > 2000 nM |  |  | > 2000 nM | 3.3 nM | 4.4 nM | CC(C)(C)c1cc(-c2ccc(Cl)c(F)c2)nc2cc(C(=O)N3CCN(c4cn[nH]c4)C(=O)C3(C)C)oc12 [Example I-260] | 
18 | > 2000 nM | 78 nM | 96 nM | > 2000 nM |  |  | CC1(O)CC(C(=O)N2CCN(C(=O)c3cc4nc(N5CCC(F)(F)C5)cc(C(C)(C)C)c4o3)C(C)(C)C2)C1 (stereo not shown) [Example I-439] | 
19 | 7400 nM |  |  | 6000 nM | 19 nM | 33 nM | CC(C)(O)C(=O)N1CCN(C(=O)c2cc3nc(-c4ccc(F)cc4)cc(C4(C)CC4)c3o2)C(C)(C)C1 [Example I-27] | 
20 | > 2000 nM | 8.1 nM | 10 nM | > 2000 nM |  |  | CC(C)(C)c1cc(-c2ccc(Cl)c(F)c2)nc2cc(C(=O)N3CCN(S(C)(=O)=O)CC3(C)C)oc12 [Example I-508] | 
21 | > 2000 nM | 0.3 nM | 0.7 nM | > 2000 nM |  |  | CC1(C)CCC(c2cc(C(C)(C)C)c3oc(C(=O)N4CCN(c5cccc(-c6nnn[nH]6)n5)CC4(C)C)cc3n2)CC1 [Example I-345] | 
22 | 16000 nM |  |  | 19000 nM | 3700 nM | 3800 nM | CC(C)c1cc(-c2ccc(F)cc2)nc2cc(C(=O)N3CCN(C(=O)C(C)(C)O)[C@@H](C)C3)oc12 [Example I-87] | 
23 | > 2000 nM |  |  | > 2000 nM | 36 nM | 33 nM | Cc1nccnc1N1CCN(C(=O)c2cc3nc(-c4ccc(Cl)cc4)cc(C(C)(C)C)c3o2)C(C)(C)C1 [Example I-266] | 
24 | > 2000 nM | 240 nM | 147 nM | > 2000 nM |  |  | CN1CC(C)(C)N(C(=O)c2cc3nc(-c4ccc(Cl)c(F)c4)cc(C(C)(C)C)c3o2)CCC1=O [Example I-526] | 
25 | > 1550 nM | 0.2 nM | 0.4 nM | > 1550 nM |  |  | CC(C)(CCC(=O)N1CCN(C(=O)c2cc3nc(-c4ccc(Cl)c(F)c4)cc(C(C)(C)C)c3o2)C(C)(C)C1)C(=O)O [Example I-367] | 
